The values that follow come from patent US9561231B2 (AbbVie Inc., priority 2012, dated 2017).

Assay [1] deals with T1, first (BD1: amino acids K57-E168) bromodomain of BRD4 (Homo sapiens, UniProt O60885).
T1 construct: His-tagged first (BD1: amino acids K57-E168)
The experiment in a line: TR-FRET bromodomain binding assay, BRD4 BD1. The settings on record: Ki calculated from IC50, probe Kd and probe concentration, read-out: TR-FRET Binding Ki: BRD4 (BDI_K57-E168). The method in brief:
(§1)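 His-tagged BRD4 BD1 (K57-E168) or BD2 ([…]) displacing an Alexa647-labelled BET-inhibitor probe in 20 mM sodium phosphate pH 6.0, 50 mM NaCl, 1 mM EDTA, 0.01% Triton X-100, 1 mM DTT.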

Assay [2] has as its target T2, second (BD2: amino acids E352-E168) bromodomain of BRD4 (Homo sapiens, UniProt O60885).
T2 construct: protocol
The assay is described as follows: TR-FRET bromodomain binding assay, BRD4 BD2. The settings on record: Ki calculated from IC50, probe Kd and probe concentration, read-out: TR-FRET Binding Ki: BRD4 (BDII_E352-M457). The method in brief:
as §1

The mark [3] stands for this setting: TR-FRET assay protocol (A-G, compound concentration range).
Where [4] appears, read: TR-FRET assay protocol (D, E or G) per compound.

Where two headings read alike, the source gives them in different places.

As to `Cn1nc(-c2ccccc2Oc2ccccc2)c(-c2cncc(C(=O)NC3CC3)c2)cc1=O` [Example 144, N-cyclopropyl-5-[1-methyl-6-oxo-3-(2-phenoxyphenyl)-1,6-dihydropyridazin-4-yl]pyridine-3-carboxamide], the results for the Ki in assay [1] (setting [3]) and in assay [2] (setting [3]) were greater than 2380 nM and greater than 3370 nM, respectively.
Consider `CCOc1cc(=O)n(C)cc1-c1cc(S(C)(=O)=O)ccc1NCc1ccc(F)cc1F` [Example 409, 5-{2-[(2,4-difluorobenzyl)amino]-5-(methylsulfonyl)phenyl}-4-ethoxy-1-methylpyridin-2(1H)-one], for which the figures for the Ki in assay [1] (setting [4]) and in assay [2] (setting [4]) were 2010 nM and 1100 nM, respectively.
Turning to `Cn1nc(-c2ccccc2Oc2ccccc2)c(-c2cccnc2)cc1=O` [Example 195, 2-methyl-6-(2-phenoxyphenyl)-5-(pyridin-3-yl)pyridazin-3(2H)-one], the inhibitory constant (Ki) in assay [1] (setting [3]) is 664 nM; in assay [2] (setting [3]) it was 317 nM.
Taken in the same sequence, the figures for `Cn1nc(-c2ccccc2Oc2ccccc2)c(-c2ccc3nsnc3c2)cc1=O` [Example 137, 5-(2,1,3-benzothiadiazol-5-yl)-2-methyl-6-(2-phenoxyphenyl)pyridazin-3(2H)-one] were 3260 nM and 1170 nM.
Consider `Cn1nc(-c2ccccc2Oc2ccccc2)c(-c2ccc(NCCN3CCOCC3)nc2)cc1=O` [Example 162, 2-methyl-5-(6-{[2-(morpholin-4-yl)ethyl]amino}pyridin-3-yl)-6-(2-phenoxyphenyl)pyridazin-3(2H)-one], for which the figures for the Ki in assay [1] (setting [3]) and in assay [2] (setting [3]) were 109 nM and 75.1 nM, respectively.
Turning to `Cn1nc(-c2ccccc2Oc2ccccc2)c(-c2cncc(NC3CCCC3)c2)cc1=O` [Example 143, 5-[5-(cyclopentylamino)pyridin-3-yl]-2-methyl-6-(2-phenoxyphenyl)pyridazin-3(2H)-one], the figures for the Ki in assay [1] (setting [3]) and in assay [2] (setting [3]) were 3200 nM and 5470 nM, respectively.
Turning to `Cn1nc(-c2ccccc2Oc2ccccc2)c(-c2ccc(C(=O)NC(C)(C)C)cc2)cc1=O` [Example 168, N-tert-butyl-4-[1-methyl-6-oxo-3-(2-phenoxyphenyl)-1,6-dihydropyridazin-4-yl]benzamide], the figures for the inhibition constant (Ki) in assay [1] (setting [3]) and in assay [2] (setting [3]) were 1070 nM and 993 nM, respectively.
Take `CCOc1cncc(-c2cc(=O)n(C)nc2-c2ccccc2Oc2ccccc2)c1` [Example 190, 5-(5-ethoxypyridin-3-yl)-2-methyl-6-(2-phenoxyphenyl)pyridazin-3(2H)-one]: the inhibition constant (Ki) is 6560 nM in assay [1] (setting [3]) and 2420 nM in assay [2] (setting [3]).
The corresponding values for `Cn1nc(-c2ccccc2Oc2ccccc2)c(-c2ccc(C=O)cc2)cc1=O` [Example 65, 4-[1-methyl-6-oxo-3-(2-phenoxyphenyl)-1,6-dihydropyridazin-4-yl]benzaldehyde] are 797 nM and 140 nM.
Take `Cc1nnc(-c2ccc(-c3cc(=O)n(C)nc3-c3ccccc3Oc3ccccc3)cc2)o1` [Example 91, 2-methyl-5-[4-(5-methyl-1,3,4-oxadiazol-2-yl)phenyl]-6-(2-phenoxyphenyl)pyridazin-3(2H)-one]: the Ki in assay [1] (setting [3]) is greater than 238 nM; in assay [2] (setting [3]), 238 nM.
`CCOc1cc(=O)n(C)cc1-c1cc(NC(=O)C2(c3ccccc3)CC2)ccc1Oc1ccc(F)cc1F` [Example 299, N-[4-(2,4-difluorophenoxy)-3-(4-ethoxy-1-methyl-6-oxo-1,6-dihydropyridin-3-yl)phenyl]-1-phenylcyclopropanecarboxamide]: the Ki was 149 nM in assay [1] (setting [3]) and 35.2 nM in assay [2] (setting [3]).
For `Cn1nc(-c2ccccc2Oc2ccccc2)c(-c2cnn(CCN3CCOCC3)c2)cc1=O` [Example 172, 2-methyl-5-{1-[2-(morpholin-4-yl)ethyl]-1H-pyrazol-4-yl}-6-(2-phenoxyphenyl)pyridazin-3(2H)-one], the inhibition constant Ki in assay [1] (setting [3]) was 572 nM; in assay [2] (setting [3]) it was 593 nM.
As to `Cn1nc(-c2ccccc2Oc2ccccc2)c(-c2ccc(CNc3ccccc3)cc2)cc1=O` [Example 187, 2-methyl-6-(2-phenoxyphenyl)-5-{4-[(phenylamino)methyl]phenyl}pyridazin-3(2H)-one], the results for the Ki in assay [1] (setting [3]) and in assay [2] (setting [3]) were 4950 nM and 2250 nM, respectively.
Consider `CCS(=O)(=O)Nc1ccc(OCC2CC2)c(-c2ccc(=O)n(C)c2)c1C` [Example 365, N-[4-(cyclopropylmethoxy)-2-methyl-3-(1-methyl-6-oxo-1,6-dihydropyridin-3-yl)phenyl]ethanesulfonamide], for which the figures for the Ki in assay [1] (setting [3]) and in assay [2] (setting [3]) were 1350 nM and greater than 4440 nM, respectively.
Regarding `CNC(=O)c1cc(=O)n(C)cc1-c1cc(NS(C)(=O)=O)ccc1Oc1ccc(F)cc1F` [Example 276, 5-{2-(2,4-difluorophenoxy)-5-[(methylsulfonyl)amino]phenyl}-N,1-dimethyl-2-oxo-1,2-dihydropyridine-4-carboxamide], the inhibitory constant (Ki) in assay [1] (setting [3]) is 916 nM; in assay [2] (setting [3]), 570 nM.
In the case of `CN(C)C(=O)c1cc(F)cc(-c2cc(=O)n(C)nc2-c2ccccc2Oc2ccccc2)c1` [Example 152, 3-fluoro-N,N-dimethyl-5-[1-methyl-6-oxo-3-(2-phenoxyphenyl)-1,6-dihydropyridazin-4-yl]benzamide], the Ki in assay [1] (setting [3]) was 6620 nM; in assay [2] (setting [3]), 7270 nM.
As to `CC(=O)c1cccc(-c2cc(=O)n(C)nc2-c2ccccc2Oc2ccccc2)c1F` [Example 124, 5-(3-acetyl-2-fluorophenyl)-2-methyl-6-(2-phenoxyphenyl)pyridazin-3(2H)-one], the Ki in assay [1] (setting [3]) is 8120 nM; in assay [2] (setting [3]), 17700 nM.
The corresponding values for `CCS(=O)(=O)Nc1ccc(Oc2ccc(F)cc2F)c(-c2cn(C)c(=O)cc2OCCN(C)C)c1` [Example 288, N-(4-(2,4-difluorophenoxy)-3-(4-(2-(dimethylamino)ethoxy)-1-methyl-6-oxo-1,6-dihydropyridin-3-yl)phenyl)ethanesulfonamide] are 190 nM and 551 nM.
Consider `CN(C)c1cccc(-c2cc(=O)n(C)nc2-c2ccccc2Oc2ccccc2)c1` [Example 209, 5-[3-(dimethylamino)phenyl]-2-methyl-6-(2-phenoxyphenyl)pyridazin-3(2H)-one], for which the Ki was greater than 5490 nM in assay [1] (setting [3]) and 8480 nM in assay [2] (setting [3]).
For the compound `CCS(=O)(=O)Nc1ccc(Oc2ccc(F)cc2F)c(-c2cn(C)c(=O)cc2-c2ccccc2O)c1` [Example 331, N-{4-(2,4-difluorophenoxy)-3-[4-(2-hydroxyphenyl)-1-methyl-6-oxo-1,6-dihydropyridin-3-yl]phenyl}ethanesulfonamide], the Ki was 164 nM in assay [1] (setting [3]) and 551 nM in assay [2] (setting [3]).
The corresponding values for `CC(C)Cc1ccc(-c2cc(=O)n(C)nc2-c2ccccc2Oc2ccccc2)cc1` [Example 96, 2-methyl-5-[4-(2-methylpropyl)phenyl]-6-(2-phenoxyphenyl)pyridazin-3(2H)-one] are 8330 nM and 13400 nM.
`CN(C)C(=O)c1ccc(-c2cc(=O)n(C)nc2-c2ccccc2Oc2ccccc2)cc1` [Example 108, N,N-dimethyl-4-[1-methyl-6-oxo-3-(2-phenoxyphenyl)-1,6-dihydropyridazin-4-yl]benzamide]: the Ki was 410 nM in assay [1] (setting [3]) and 327 nM in assay [2] (setting [3]).
The corresponding values for `COc1cc(=O)n(C)nc1-c1ccccc1OCc1ccncc1` [Example 45, 5-methoxy-2-methyl-6-[2-(pyridin-4-ylmethoxy)phenyl]pyridazin-3(2H)-one] are greater than 5670 nM and greater than 11100 nM.
Regarding `CCN(CC)C(=O)c1cc(F)cc(-c2cc(=O)n(C)nc2-c2ccccc2Oc2ccccc2)c1` [Example 167, N,N-diethyl-3-fluoro-5-[1-methyl-6-oxo-3-(2-phenoxyphenyl)-1,6-dihydropyridazin-4-yl]benzamide], the Ki was 5430 nM in assay [1] (setting [3]) and 7370 nM in assay [2] (setting [3]).
Taken in the same sequence, the figures for `Cn1nc(-c2ccccc2Oc2ccccc2)c(-c2ccc3scnc3c2)cc1=O` [Example 131, 5-(1,3-benzothiazol-5-yl)-2-methyl-6-(2-phenoxyphenyl)pyridazin-3(2H)-one] were 6390 nM and 410 nM.
For `Cc1ccc(-c2cc(=O)n(C)nc2-c2ccccc2Oc2ccccc2)o1` [Example 211, 2-methyl-5-(5-methylfuran-2-yl)-6-(2-phenoxyphenyl)pyridazin-3(2H)-one], the Ki in assay [1] (setting [3]) is 2150 nM; in assay [2] (setting [3]), 1520 nM.
As for `Cn1nc(-c2ccccc2Cc2ccccc2)ccc1=O` [Example 222, 6-(2-benzylphenyl)-2-methylpyridazin-3(2H)-one], the figures for the Ki in assay [1] (setting [3]) and in assay [2] (setting [3]) were 6840 nM and 1360 nM, respectively.
Regarding `Cn1nc(-c2ccccc2Oc2ccccc2)c(C2CCN(S(C)(=O)=O)CC2)cc1=O` [Example 90, 2-methyl-5-[1-(methylsulfonyl)piperidin-4-yl]-6-(2-phenoxyphenyl)pyridazin-3(2H)-one], the inhibition constant Ki in assay [1] (setting [3]) is 4550 nM; in assay [2] (setting [3]), 2330 nM.
Consider `CC(C)Oc1ccc(-c2cc(=O)n(C)nc2-c2ccccc2Oc2ccccc2)cn1` [Example 123, 2-methyl-6-(2-phenoxyphenyl)-5-[6-(propan-2-yloxy)pyridin-3-yl]pyridazin-3(2H)-one], for which the Ki in assay [1] (setting [3]) was 7260 nM; in assay [2] (setting [3]), 1170 nM.
`COc1cc(=O)n(C)nc1-c1ccccc1Oc1cccc(F)c1` [Example 36, 6-[2-(3-fluorophenoxy)phenyl]-5-methoxy-2-methylpyridazin-3(2H)-one]: the Ki in assay [1] (setting [3]) was 5060 nM; in assay [2] (setting [3]) it was 4430 nM.
